Where “and” joins values, the source holds several entries; their conditions need not be identical. Equal values may be shown once. Where no end group is shown, it is not given here.

The source of these data is patent US20220202912A1, “Polypeptides in Preparation of Drugs for Treatment or Prevention of Rheumatoid Arthritis” (priority 2011, published 2022).

One experiment concerns IL-6. The experiment in a line: immunohistochemistry of IL-6 in spleen and thymus, CIA transgenic TNF-luc mice. The class given is in vivo, BALB/c transgenic TNF-luc mice. To be noted: Adalimumab 8 mg/kg, mPEG-SC20k-HM-3 20 mg/kg. As for the experimental part: (§1) Determining criteria: The experimental results are determined based on the proportion of positive cells in all tissue cells and the staining intensity of positive cells: A: scoring is performed based on the number of chromogenic cells, 1 point is given when the proportion of the number of positive cells is less than ⅓, 2 points are given when the proportion of the number of positive cells is ⅓-⅔, and 3 points are given when the proportion of the number of positive cells is greater than or equal to ⅔. B: Based on the color depth of cells, 0 point is given when no cells have positive reaction, 1 point is given when cells are light yellow, 2 points are given when the cells are light brown, and 3 points are given when the cells are dark brown. Point product=A×B. The result is expressed in point product.

The test system of experiment [1] is TNF-α. Description: in vivo imaging of TNF-α expression, AIA transgenic TNF-luc mice. Further details: species or system BALB/c transgenic TNF-luc mice. To be noted: Adalimumab 8 mg/kg; for Fluorescence intensity (in vivo imaging): mPEG-SC20k-HM-3 20 mg/kg sc; for in vivo fluorescence densities: mPEG-SC20k-HM-3 20 mg/kg. As for the experimental part:
[…] After the mice are lightly anesthetized with ether, the mice are fixed within 5-20 min and put into an in vivo imager, the imager is covered with an instrument lid, on-fluro and om-photo names in the desktop imaging interface of the computer are clicked, and the expose button is clicked to complete the fluorescence and white light photos of mice in vivo imaging.
(§2) (1) Imaging principle: Fluorescein substrate is injected intraperitoneally, and binds to luciferase carried on TNF-α protein to catalyze luminescence. Through the Luciferase fluorescent reporter group on TNF, the change of the fluorescence area in mice is observed, and the expression of TNF-α is evaluated, so as to evaluate the impact of mPEG-SC20k-HM-3 on the expression of TNF-α.
(§3) (2) Operation steps: Start the Carestreama in vivo imager, open the MI software, click the Capture button, and set photographing conditions. In the on-flour fluorescence mode, set the parameters X Binning. 2 pixels, Y Binning. 2 pixels; Illumination Source: Multi-wavelength; f-stop: 2.50; field of view (FOV) (mm): 120; focal plane (mm): Tray. Excitation filter: 430 nm, emission filter: 535 nm; exposure time: 30s. Click the Expose button to photograph fluorescence. Under the om-photo name, set the parameters X Binning. 0 pixels, Y Binning. 0 pixels; Illumination Source: None; f-stop: 2.50; FOV (mm): 120; focal plane (mm): Tray. Excitation filter: 0 nm, emission filter: 0 nm; exposure time: 0.175 s. Click the Expose button to photograph white light.
(§4) (3) Image processing and output: Analyze and adjust photos of fluorescence function imaging and white light structure imaging to the best, and the FOV is consistent. Click Window→Tie, Display→Invert, Image Display→overlay→Transparency for image stacking. In the image output process, in a navigation panel, click Annotation→Width/Heigh→Scale Analysis Image for setting, click Add Annotation Bar for adding a title, click Add Intensity Scale for adding a ruler, and set Horizontal, Size, Style, Number of Significant Dig, and Horizontal/Vertical Length. Output a picture in Tiff format.

Experiment [2] has as its system TNF-α. The experiment in a line: immunohistochemistry of TNF-α in ankle joints, CIA transgenic TNF-luc mice. The class given is in vivo, BALB/c transgenic TNF-luc mice. The note with it: Adalimumab 8 mg/kg, mPEG-SC20k-HM-3 20 mg/kg. As for the experimental part: as §1
Experiment [3] deals with macrophages (PMA-induced U937 cells). Description: Western blot of protein expression in macrophages (PMA-induced U937 cells). The class given is cell-based, human. As for the experimental part: 3.1 U937 cells are added to a 6-well plate (1.5×10^5 cells/mL), PMA (25 ng/mL) is used for induction for 48 h, and the cells adhere and differentiate into macrophages. Positive drug Adalimumab (25 μg/mL, 50 μg/mL, 100 μg/mL, 200 μg/mL, 400 μg/mL), Avastin (25 μg/mL, 50 μg/mL) are added, the final concentrations of mPEG-SC20k-HM-3 are 2.25, 4.5, 9.0, 13.5, 18.0, 36 μmol/L, and isovolumetric PBS is added to the blank group and the model group. The cells are incubated in a CO2 incubator at 37° C. for 24 or 48 h. Rat synovial cells are induced with LPS for 24 h and then mPEG-SC20k-HM-3 is administrated to final concentrations of 2.25, 4.5, 9.0, 13.5, 18.0 μmol/L, and the cells are incubated in a CO2 incubator at 37° C. for 48 h.
3.3 A protein extract solution is added at 20 μL/1×10^5 cells, and the cells are pipetted and dispersed, and stand at 4° C. for 30 min to lyse the cells.
3.4 1/4 volume of 5×protein loading buffer is added, and boiling water bath is performed for 5-10 min.
3.5 20 μL of protein sample is taken and 10% SDS-PAGE electrophoresis is performed.
3.6 The protein on the gel is transferred to the PVDF membrane by using a wetting transfer method with a constant current of 100 mA for 1-2.5 h.
3.7 The PVDF membrane is blocked with a blocking solution at room temperature for 2 h.
3.8 The membrane is washed for 3 times with PBST, 5 min each time. A primary antibody is added and the membrane stands at 4° C. overnight or is incubated at 37° C. for 2 h.
3.9 The membrane is washed for 3 times with PBST, 5 min each time. A secondary antibody is added and the membrane is incubated at room temperature for more than 2 h.
3.10 The membrane is exposed in a gel imager using an ECL detection kit.

Experiment [4] deals with TNF-α. Description: in vivo imaging of TNF-α expression, carrageenan-induced TNF-luc mice. On the set-up: species or system BALB/c transgenic TNF-luc mice. To be noted: Adalimumab 8 mg/kg, mPEG-SC20k-HM-3 20 mg/kg sc. As for the experimental part:
At 8 time points, hour 0, hour 2, hour 4, hour 8, hour 12, hour 24, hour 48 and hour 72 after modeling, fluorescein is injected intraperitoneally into each group of mice. After the mice are lightly anesthetized with ether, the mice are fixed within 5-20 min and put into an in vivo imager, the imager is covered with an instrument lid, on-fluro and om-photo names in the desktop imaging interface of the computer are clicked, and the expose button is clicked to complete the fluorescence and white light photos of mice in vivo imaging. The specific imaging principle, operation steps, image processing and output are the same as those in the previous embodiment.
In vivo imaging results of mice are processed with Carestream Molecular Imaging Software 5.3, and the luminous area is used as the determination of results. The fluorescence areas of the groups after optimization are compared.
as §2, §3, §4

The mark [5] stands for this setting: with the increase of the dosage.

For the substance Adalimumab [reference compound], the “immunohistochemical score of IL-6 in spleen” value with IL-6 was determined as 0.008±0.003. In addition, the “immunohistochemical score of IL-6 in thymus” value in the experiment with IL-6 was 0.030±0.031. Moreover, the “Fluorescence intensity (in vivo imaging)” value was 46.746 ± 3.457 ×10^5 with TNF-α [1] (17 d (treatment starts)); 26.446 ± 2.659 ×10^5 in the experiment on TNF-α [1] (32 d); 18.048 ± 4.770 ×10^5 in the experiment on TNF-α [4] (0 h); 18.480 ± 4.887 ×10^5 in the experiment on TNF-α [4] (2 h); 20.209 ± 2.261 ×10^5 in the experiment with TNF-α [4] (4 h); 25.70±2.67 ×10^5 and 25.703 ± 2.668 ×10^5 with TNF-α [4] (8 h). Moreover, the “Fluorescence intensity (in vivo imaging)” value in the experiment with TNF-α [4] (12 h) was 22.40±5.06 ×10^5 and 22.396 ± 5.065 ×10^5; in the experiment with TNF-α [4] (24 h) it was 13.89±8.53 ×10^5 and 13.891 ± 0.853 ×10^5; in the experiment on TNF-α [4] (48 h) it was 14.76±3.58 ×10^5 and 14.765 ± 3.580 ×10^5; in the experiment on TNF-α [4] (72 h) it was 19.87±3.92 ×10^5 and 19.868 ± 3.924 ×10^5. For the same substance, the “in vivo fluorescence densities” value in the experiment on TNF-α [1] (day 17, as printed in text) is 46.75±3.46 10^6; in the experiment on TNF-α [1] (day 32, as printed in text), 26.45±2.66 10^6. Moreover, the “immunohistochemical score of TNF-α in ankle joint cavity” value in the experiment with TNF-α [2] was determined as 0.160±0.109. In addition, the “effect on integrin pathway angiogenesis” value in experiment [3] was “no inhibitory effect”.

As for “mPEG-SC20k-Ile-Val-Arg-Arg-Ala-Asp-Arg-Ala-Ala-Val-Pro-Gly-Gly-Gly-Gly-Arg-Gly-Asp ({mPEG‑SC 20k}-IVRRADRAAVPGGGGRGD) [polypeptide III, No. 3]”, the “immunohistochemical score of IL-6 in spleen” value with IL-6 came out at 0.017±0.009. Further, in the experiment on IL-6, the “immunohistochemical score of IL-6 in thymus” value is 0.040±0.021. Moreover, the “Fluorescence intensity (in vivo imaging)” value with TNF-α [1] (17 d (treatment starts)) was 41.604 ± 6.080 ×10^5; in the experiment with TNF-α [1] (32 d), 31.956 ± 1.170 ×10^5; in the experiment on TNF-α [4] (0 h), 10.851 ± 3.014 ×10^5; with TNF-α [4] (2 h), 13.880 ± 5.266 ×10^5; in the experiment with TNF-α [4] (4 h), 11.926 ± 2.119 ×10^5; in the experiment with TNF-α [4] (8 h) it was 19.37±3.41 ×10^5 and 19.367 ± 3.408 ×10^5. Besides, the “Fluorescence intensity (in vivo imaging)” value is 18.65±9.09 ×10^5 and 18.653 ± 9.093 ×10^5 in the experiment with TNF-α [4] (12 h); 12.65±2.39 ×10^5 and 12.654 ± 2.390 ×10^5 in the experiment on TNF-α [4] (24 h); 14.37±6.24 ×10^5 and 14.037 ± 6.238 ×10^5 in the experiment with TNF-α [4] (48 h); 13.40±1.17 ×10^5 and 13.402 ± 1.171 ×10^5 with TNF-α [4] (72 h). The “in vivo fluorescence densities” value with TNF-α [1] (day 17, as printed in text) is reported as 41.6±1.68 10^6; with TNF-α [1] (day 32, as printed in text) it was 31.96±1.17 10^6. Besides, in the experiment with TNF-α [2], the “immunohistochemical score of TNF-α in ankle joint cavity” value worked out at 0.143±0.055. Besides, the “dose with the best inhibitory effect on the expression of Integrin α5, Integrin β1, VEGFR2, HIF-1β, IL-6 proteins” value in experiment [3] is 13.5 µM. Besides, the “dose with the best inhibitory effect on the expression of TNFR1 protein” value in experiment [3] worked out at 18 µM. Also, in experiment [3], the “dose with the best inhibitory effect on the expression of TNFR2, NF-κB and TNF-α proteins” value was found to be 4.5 µM. In addition, the “expression of HIF-1β and IL-6 protein in macrophages” value in experiment [3] (setting [5]) was “down-regulated”. Further, in experiment [3] (setting [5]), the “expression of NF-κB protein factors in nuclei” value is “down-regulated”. For the same substance, the “expression of TNFR1 and TNFR2 protein factors in macrophages” value in experiment [3] (setting [5]) is “down-regulated”. Besides, the “expression of integrin α5, Integrin β1 and VEGFR2 proteins in macrophages” value in experiment [3] (setting [5]) is “down-regulated”.
